From patent US10894948B2, “Resetting pluripotent stem cells” (CAMBRIDGE ENTERPRISE LIMITED, priority 2014, dated 2021)
“Also recorded” adds a separate entry of the source.

Columns and labels:
reset cells [1] = assay: Colony forming assay (alkaline phosphatase staining) in t2iL+Gö; format: cell-based, human; details: transgene-free reset cells in t2iL+Gö plus inhibitor, without ROCKi
Method: E. Colony forming assay. Cells maintained in t2iL+Gö were seeded without ROCKi at 2000 cells/well in 12 well dishes in t2iL+Gö plus FGF receptor inhibitor PD17 or TGF-β/activin receptor inhibitor A83-01. Colonies were stained for alkaline phosphatase after 7 days.
G. Colony forming assays on transgene-free reset cells. Cells maintained in t2iL+Gö were seeded at 2000 cells/well in […] in t2iL+Gö plus FGF receptor inhibitor PD17 or TGF-b/activin receptor inhibitor A83-01 and without ROCKi. Colonies were stained for alkaline phosphatase after 7 days.
Reset H9 cells maintained in t2iL+Gö were seeded without ROCKi at 2000 cells/well in 12 well dishes in t2iL+Gö. FGF receptor inhibitor PD173074 or TGF-β/activin receptor inhibitor A83-01 were added. Colonies were stained for alkaline phosphatase after 7 days.
Colony forming assays were carried out on MEF feeder cells by plating 1000 cells per well in 24-well plates, 2000 cells for 12-well plates and 5000 cells for 6-well plates. ROCKi was used for conventional but not reset cells. Activin/TGF β receptor inhibitor A83-01 was used at 0.25 μM where indicated. Plates were fixed and stained for alkaline phosphatase (Sigma-Aldrich, cat. 86R-1KT). Plates were scanned using a CellCelector (Aviso) or cellSens Dimension (Olympus).

reset cells [2] = assay: Expansion of reset cells in different CH concentrations; format: cell-based, human
Method: C. Expansion of reset cells in different CH concentrations. Cells were plated at 5×10^4 cells per well and cultured for 4 days in PD03 (1 μM) with LIF, and 0, 1, or 3 μM CH. Y axis indicates cell number (×10^4).
Moderating GSK3 inhibition improves self-renewal of rat ES cells (Chen et al., 2013a; Meek et al., 2013) and we have also observed that combination of Gö6983 with the GSK3 inhibitor CH is unfavourable for mouse ESC propagation (J. Wray and A S, unpublished). We therefore titrated CH. […] Henceforth cells were maintained in titrated 2i with LIF and Gö6983 (t2iL+Gö).

H9 and Shef6 cells = assay: Resetting by transient transfection with NANOG and KLF2 plasmids; format: cell-based, human; details: pilot experiments
From the text: For transient expression and resetting we first generated H9 and Shef6 cells with an EOS-GFP/puro^R reporter (Hotta et al., 2009) introduced in a piggyBac vector. We have observed that in the PB rather than lentiviral vector context this reporter is initially expressed heterogeneously in conventional PSC and progressively silenced, but is re-expressed during resetting. We used NANOG and KLF2 expression constructs driven by the CAG promoter harbouring a blasticidin resistance gene. One well of a 6-well plate was transfected as above with 3 μg of non-linearised NANOG and KLF2 plasmids. Two days later, medium was switched to N2B27 with PD173074 (PD17, 0.5 μM), PD03 (0.5 μM) and hLIF. At day 4, cells were retransfected and on day 8 medium was changed to t2iL+Gö. Puromycin selection (0.5 μg/ml) was applied from day 12 onwards for two passages. Single colonies were picked on passage 4 or 5. […]
We investigated the timespan for resetting by inducing NANOG/KLF2 expression with DOX for finite intervals then assaying colony formation in t2iL+Gö. […] These were indistinguishable in morphology from cultures in which transgenes […] or from reset cells generated previously with inducible transgenes. qRT-PCR and immunostaining confirmed sustained expression of ground state pluripotency factors (FIG. 7E, F). […]

[3] = system: reset cells and conventional PSC; assay: Oxygen consumption rate (SeaHorse extracellular flux); format: cell-based, human; details: injected during assay
Method: A. Oxygen consumption rate (OCR). Measurements obtained using a SeaHorse Extracellular Flux analyser.
Oxygen consumption was measured using an XF^e24 Analyzer (SeaHorse Bioscience) according to the manufacturer's protocol. In brief, SeaHorse plates were pre-treated by coating with laminin and 80,000 cells were seeded on each well the night before the experiment. Culture media were exchanged for XF Base Medium (SeaHorse bioscience) supplemented with 2 mM pyruvate and 20 mM glucose with an adjusted pH of 7.4 and cells incubated at 37° C. in atmospheric CO2 for one hour. Oligomycin (2 μM), FCCP ([…]), Antimycin (1 μM) and Rotenone (1 μM) were injected during assay (XF cell mito stress test kit, Seahorse Bioscience). Mitochondria were stained with Mito Tracker Green FM (final concentration 50 nM, Life Technologies) or Tetramethylrhodamine, ethyl ester (TMRE, final concentration 20 nM, Life Technologies) in the relevant medium for 10 minutes and analysed by confocal microscopy.

reset H9 cells = assay: Propagation of reset cells in 2iL upon DOX withdrawal; format: cell-based, human; details: 5 μM added to 2iL upon DOX withdrawal
Method: B. PKC inhibitor Gö6983 maintains the reset state in the absence of transgene expression. Upon DOX withdrawal cells in 2iL degenerated. […] Note that intrinsic fluorescence of Gö produces a faint red background signal.
To induce resetting, transfected PSC were dissociated with trypsin and replated as single cells in the presence of ROCK inhibitor. Doxycycline (DOX, 1 μM) was added the next day and 24 h later medium was changed to N2B27 medium (Ndiff227, StemCells Inc., SCS-SF-NB-02) with 1 μM PD0325901 (PD03), human LIF (prepared in-house), DOX and either 3 μM CHIR99021 (2iL+DOX) or 1 μM CHIR99021 (t2iL+DOX). Medium was changed every day. Cells were split every five to seven days after dissociation to single cells with Accutase (Life Technologies) for 10 minutes. Around two weeks after DOX induction, cells were transferred to t2iL+5 μM PKC inhibitor Gö6983 (Sigma-Aldrich) (t2iL+Gö). Reset cells cultured in t2iL+Gö were also passaged every five to seven days as single cells. Cells transferred to t2iL+Gö proliferate slowly for the initial couple of passages after withdrawal of DOX. Cells were maintained on MEF feeders throughout.
These cultures expressed OCT4 (FIG. 8) and expanded continuously, although proliferation was reduced and morphology less consistent compared to DOX-maintained cells.

reset cells [4] = assay: Feeder-free culture of reset cells on Matrigel or Laminin 511-E8; format: cell-based, human; details: Gö reduced to 2 μM, ROCKi added prior to passaging
Method: For feeder-free culture plates were coated overnight at 4° C. with either diluted BD Matrigel hES-qualified Matrix (1:30) or Laminin 511-E8 (iMatrix-511; Nippi) at […] (Nakagawa et al., 2014). Cells were dissociated in the presence of ROCKi and plated in t2iL with Gö reduced to 2 μM.
Based on observations with mouse ESC we realised that Gö concentration was critical without buffering by feeders. We therefore reduced Gö to 2 μM and also added ROCKi prior to passaging. […] On both substrates cells could be expanded, albeit more slowly on laminin, and ground state pluripotency factor expression was retained over several passages (FIG. 1L).

reset iH9-EOS cells = assay: Culture of reset cells in t2iL with Ro-31-8425 replacing Gö6983; format: cell-based, human; details: 0.1 μM in t2iL, 25 days (7 passages)
Method: FIG. 41 Bright field and fluorescence images of reset iH9-EOS cells after culture for 25 days (7 passages) in […] with Ro-31-8425 (0.1 μM) replacing Gö6983.

[5] = system: Human ES cells Shef6 and H9, which carry the EOS reporter; assay: Resetting without transgenes, EOS-GFP reporter (FACS, colonies); format: cell-based
Method: PDL-HDACi comprises mTeSR™-E6 basal medium (Stem Cell Technologies) supplemented with 1 μM PD0325901, human LIF (10 ng/ml, prepared in house) and a
HDAC inhibitor such as valproic acid sodium salt (VPC, 0.5-1 mM, Sigma,) or sodium butyrate (SB, 0.5-1 mM, Sigma).
Optionally a Wnt pathway inhibitor such as XAV939 (2 μM) may be included, constituting PDXL.
Human ES cells Shef6 and H9, which carry the EOS reporter [Hotta], were plated at a density of 50,000 to 100,000 cells per well of a six well tissue culture dish in KSR/FGF medium supplemented with 10 μM ROCK inhibitor (Y-27632). The day after medium was replaced with resetting medium (PDL-HDACi or PDXL-HDACi) for the following three days. Thereafter the cells were maintained in naïve maintenance medium, T2ilGö-FROCKi (FIG. 30).
EOS reporter contains a GFPIresPuro cassette driven by LTR of early transposon and a trimer of mouse Oct4 distal enhancer. The EOS reporter in majority of conventional human ES cells is expressed at low to undetectable level by microscope. More than 80 percent of cells do show low to moderate GFP expression by flow cytometry analysis (FACS) (FIG. 31). The resetting medium induced vast cell death and differentiation three days after. The dome shaped GFP positive colonies appears around Day5 to Day7 and peaked after day10 to day 12 (FIG. 32, FIG. 33, FIG. 34). The colonies can then be passaged in bulk or picked singly using TrypLE™ express. Puromycin selection is applied for one or two passages to exclude differentiated cells if needed. The reset cells expressed elevated naïve state markers, TFCP2L1 and DPPA3 from Day7 during resetting (FIG. 35). Two pools, iS6-N and iS6-E, have been maintained over 15 passages and are karyotypically normal by G-band analysis. They form embryoid body readily in low adhesive 96 well plates and up-regulate differentiation markers (FIG. 36).

Cc1cccc(-c2nn(C(=S)Nc3ccccc3)cc2-c2ccnc3ccccc23)n1 [A83-01]
proliferation without differentiation (reset cells [1]): continued to proliferate without differentiation

Cc1c[nH]c(-c2cnc(NCCNc3ccc(C#N)cn3)nc2-c2ccc(Cl)cc2Cl)n1 [CH]
growth rate and colony morphology (reset cells [2]; 1 μM CH, with PD03 (1 μM), LIF and Gö6983): restored growth rate while maintaining morphology
growth rate and colony morphology (reset cells [2]; complete absence of CH): colony morphology improved in the complete absence of CH, but growth rate was reduced
effect on the resetting process (H9 and Shef6 cells): appeared inhibitory to the resetting process

N#CC(C#N)=NNc1ccc(OC(F)(F)F)cc1 [FCCP]
oxygen consumption rate (OCR), reset cells versus conventional PSC [3]: greater OCR increase in reset cells than conventional PSC

COc1ccc2c(c1)c(C1=C(c3c[nH]c4ccccc34)C(=O)NC1=O)cn2CCCN(C)C [Gö6983, 3-[1-[3-(dimethylamino)propyl]-5-methoxy-1H-indol-3-yl]-4-(1H-indol-3-yl)-1H-pyrrole-2,5-dione]
maintenance of the reset state in the absence of transgene expression (reset H9 cells): maintained cell proliferation and compact colony morphology; also recorded: allowed maintenance of compact refractile colonies without Venus expression
undifferentiated colony formation without feeders (reset cells [4]): could form undifferentiated colonies on Matrigel or laminin 511-E8

CCN(CC)CCCCNc1ncc2cc(-c3cc(OC)cc(OC)c3)c(NC(=O)NC(C)(C)C)nc2n1 [PD17]
effect on the resetting process (H9 and Shef6 cells): might favour resetting

Cn1cc(C2=C(c3c4n(c5ccccc35)CCC(CN)C4)C(=O)NC2=O)c2ccccc21 (stereo not shown) [Ro-31-8425]
use as alternative PKC inhibitor for culture of reset cells (reset iH9-EOS cells): can be used as an alternative to Gö6983

CCCC(=O)[O-].[Na+] [Sodium butyrate, sodium butyrate]
resetting induction (GFP expression by FACS) ([5]; 7 days after resetting): potent resetting inducer

CCCC(CCC)C(=O)[O-].[Na+] [VPC, valproic acid sodium salt]
resetting efficiency (GFP expression by FACS) ([5]; three days VPC treatment, 7 days after resetting, increase from around 1%): ~3%

Oc1nc(-c2ccc(C(F)(F)F)cc2)nc2c1CSCC2 [XAV939]
colony yield / resetting efficiency ([5]; 2 μM in transgene-free resetting medium (PDXL)): colony yield may be higher for some cell lines but colonies are also more heterogeneous; also recorded: could significantly increase resetting efficiency

CC[C@H]1/C=C/C=C/C[C@@H](C)[C@H](O)[C@@](C)(O)C(=O)[C@@H](C)[C@H](O)[C@@H](C)C(=O)[C@@H](C)[C@H](O)[C@@H](C)/C=C/C(=O)O[C@@H]2[C@H](C)[C@H](CC1)O[C@]1(CC[C@H](C)[C@H](C[C@@H](C)O)O1)[C@H]2C [oligomycin]
oxygen consumption rate (OCR), reset cells versus conventional PSC [3]: difference was minimised
